The results in this text go back to ChEMBL document CHEMBL4680275, “From Seeds of Apium graveolens Linn. to a Cerebral Ischemia Medicine: The Long Journey of 3-n-Butylphthalide” (J Med Chem, 2020).

pIC50: −log10 of the molar value.

A short description of the experiment: Antioxidant activity assessed as hydroxyl radical scavenging activity incubated for 60 mins in water bath by Fenton reaction-based method. It is filed as functional.

As a reminder, the pIC50 is the IC50 on a negative log10 scale, so that one unit is a factor of ten. As for `CCCCC1OC(=O)c2cc(N3N=C(C)CC3=O)ccc21` (racemic), the pIC50 was 2.54.
The same measure for `CC1=NN(c2ccccc2)C(=O)C1` [EDARAVONE]: 2.45.
